Reference: US20210346359A1, “Use of CFTR Modulators For Treating Cerebrovascular Conditions” (Qanatpharma AG, priority 2018, published 2021)
“Also recorded” adds a separate entry of the source.

How the values were obtained:
CFTR mRNA = assay: Quantitative PCR of CFTR mRNA in cerebral arteries of naïve mice treated in vivo; set-up: species or system mouse; details: 3 mg/kg daily for 2 days, vs vehicle controls
Source text: Resistance artery RNA was isolated with Norgen Biotek (Thorold, Canada) “Total RNA Purification Micro” spin columns, using the proteinase K digestion and DNA removal procedures, as directed by the manufacturer's instructions. The eluted RNA was quantified with an Agilent Technologies RNA 6000 Pico Kit and Bioanalyzer; the analysis confirmed that high-quality RNA was retrieved from the artery tissue samples (RNA Integrity [RIN]: Cerebral=8.4±0.1, n=5; Cremaster=8.2±0.4, n=6). Isolation of RNA from Baby Hamster Kidney fibroblast cells followed the same procedure, with the omission of the proteinase K digestion step. […]
Quantitative FOR was performed using an Applied Biosystems ViiA™ 7 Real Time FCR system and Power SYBR® Green FCR master mix (both distributed by lnvitrogen Life Technologies). […] Gene targets were assessed in triplicate, using 1 ng of cDNA generated from the reverse transcription; negative controls received water. […] Transcript expression levels in mouse tissues were calculated from the DCt values relative to the standard housekeeping gene hydroxymethylbilane synthase (HMBS). To confirm that HMBS was reliable for normalization, transcript expression levels were also calculated from the DCt values relative to glucose-6-phosphate dehydrogenase (G6PD), which returned similar results. […]

mice with heart failure = assay: MRI (FAIR) cerebral blood flow in heart failure mice; assay type: in vivo, mouse; details: HF mice, forebrain cortical, 3 mg/kg daily for 2 days
Source text: As described previously (10-12), we utilized a flow-sensitive alternating inversion recovery (FAIR) magnetic resonance imaging (MRI) technique (13) to evaluate cerebral blood flow (CBF). During imaging, mice were immobilized with 1.8% isoflurane delivered through a nose cone. To maintain body temperature, the MRI is equipped with embedded tubes that convect water from an external heater-pump. Respiration was monitored using a pneumatic pillow (SA Instruments, Stonybrook, USA); isoflurane levels were adjusted to maintain respiration at approximately 50 breaths/minute.
FAIR images were obtained using a 7 Tesla micro-MRI system (BioSpec 70/30 USR, Bruker BioSpin, Ettlingen, Germany), including the B-GA12 gradient insert, 72 mm inner diameter linear volume resonator for RF transmission, and anteriorly placed head coil for RF reception. […] FAIR images were evaluated by manual prescription (MIPAV, NIH, Bethesda, MD; http://mipav.cit.nih.gov) of sub-hemispheric regions-of-interest (ROIs), termed ‘global’, and local ROIs corresponding to cortical and sub-cortical parenchyma in forebrain sections; cortical and paraventricular parenchyma in middle sections; and cortical and midbrain parenchyma in hindbrain sections. […]

CFTR = CFTR (Mus musculus, UniProt P26361); assay: FACS-based FITC-S1P uptake in vascular smooth muscle cells; assay type: cell-based; set-up: mesenteric artery segments were isolated, cut into small pieces and digested with trypsin, collagenase and elastase; endogenous in cells; host or cells: primary mesenteric artery vascular smooth muscle cells; details: primary vascular smooth muscle cells; 48 h TNF 10 ng/ml + C18 6 μmol/L for last 24 h
Procedure: Procedures for isolating and culturing mesenteric artery smooth muscle cells were carried out as described in (10). Briefly, mesenteric artery segments were isolated, cut into small pieces and digested with trypsin, collagenase and elastase. The resulting cell suspension was washed several times in phosphate-buffered saline and plated in Dulbecco's Modified Eagle Medium (DMEM) culture media containing 10% fetal bovine serum and 1% penicillin-streptomycin. Cell cultures were maintained at 37° C. with 5% CO2 and split at […] cells seeding density. Baby hamster kidney fibroblast cells stably expressing wild-type human CFTR (10,17) were maintained in DMEM/F12 media containing 5% fetal bovine serum and 250 μmol/L methotrexate (which activates the CFTR transgene promoter). Cells were maintained under standard cell culture conditions at 37° C. with 5% CO2.
As previously described (10), cell monolayers (treated or untreated) were incubated with 1 μmol/L S1P-FITC for 60 minutes; the cells were then detached by trypsinization, washed twice with ice-cold PBS, filtered through a 35 μm cell strainer and analyzed using the Becton-Dickinson FACS Canto operated by FACS DIVA version 6.1 software. […] The analysis procedure determined the mean fluorescence intensity (arbitrary units) of each cell population, which is a measure of uptake.

Chain of CFTR (P26361 whole entry): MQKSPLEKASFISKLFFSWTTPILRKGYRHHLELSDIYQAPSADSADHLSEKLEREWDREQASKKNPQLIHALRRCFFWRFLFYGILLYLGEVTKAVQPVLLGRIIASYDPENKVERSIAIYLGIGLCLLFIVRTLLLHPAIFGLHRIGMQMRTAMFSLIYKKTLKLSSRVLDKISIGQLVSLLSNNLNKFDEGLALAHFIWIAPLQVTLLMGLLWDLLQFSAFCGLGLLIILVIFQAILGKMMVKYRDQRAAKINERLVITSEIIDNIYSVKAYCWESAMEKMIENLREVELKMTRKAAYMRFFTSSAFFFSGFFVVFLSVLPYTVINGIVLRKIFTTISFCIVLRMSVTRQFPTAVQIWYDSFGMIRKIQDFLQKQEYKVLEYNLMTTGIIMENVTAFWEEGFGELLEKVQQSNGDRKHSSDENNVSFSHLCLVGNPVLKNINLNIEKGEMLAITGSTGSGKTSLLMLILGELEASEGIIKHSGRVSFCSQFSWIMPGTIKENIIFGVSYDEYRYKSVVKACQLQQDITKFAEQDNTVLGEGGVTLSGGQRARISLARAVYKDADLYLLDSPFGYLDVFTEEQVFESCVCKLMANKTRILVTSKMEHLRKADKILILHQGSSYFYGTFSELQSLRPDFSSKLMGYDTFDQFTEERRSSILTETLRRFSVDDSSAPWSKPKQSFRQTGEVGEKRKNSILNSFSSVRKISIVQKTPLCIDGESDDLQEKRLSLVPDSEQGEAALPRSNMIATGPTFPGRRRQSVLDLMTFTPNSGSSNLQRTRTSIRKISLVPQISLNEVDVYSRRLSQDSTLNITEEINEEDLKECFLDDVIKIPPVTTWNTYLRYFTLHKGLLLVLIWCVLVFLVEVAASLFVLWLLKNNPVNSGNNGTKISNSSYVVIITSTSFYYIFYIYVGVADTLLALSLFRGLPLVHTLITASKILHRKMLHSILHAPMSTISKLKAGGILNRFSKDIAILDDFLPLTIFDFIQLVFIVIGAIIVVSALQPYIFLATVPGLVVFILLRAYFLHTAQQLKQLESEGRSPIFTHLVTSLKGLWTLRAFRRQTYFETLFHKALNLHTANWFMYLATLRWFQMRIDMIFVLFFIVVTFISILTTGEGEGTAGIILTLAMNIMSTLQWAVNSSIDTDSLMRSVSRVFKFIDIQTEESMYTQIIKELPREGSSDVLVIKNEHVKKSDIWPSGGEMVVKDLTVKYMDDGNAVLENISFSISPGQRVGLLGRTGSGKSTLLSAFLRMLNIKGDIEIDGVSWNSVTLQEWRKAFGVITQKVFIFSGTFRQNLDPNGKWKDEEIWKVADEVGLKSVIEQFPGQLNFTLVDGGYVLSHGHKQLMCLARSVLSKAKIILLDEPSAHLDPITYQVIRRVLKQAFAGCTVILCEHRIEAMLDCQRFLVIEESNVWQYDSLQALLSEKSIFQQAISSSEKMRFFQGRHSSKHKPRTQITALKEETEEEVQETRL

Cc1ccc(NC(=O)C2(c3ccc4c(c3)OC(F)(F)O4)CC2)nc1-c1cccc(C(=O)O)c1 [lumacaftor]
cerebral artery CFTR mRNA expression (CFTR mRNA): unaffected; also recorded: does not influence

O=C(Nc1ncc(C(c2ccccc2Cl)N2CCC(O)C2)s1)C1(c2ccc3c(c2)OCO3)CC1 (stereo not shown) [C18, 1-(benzo[d][1,3]dioxol-5-yl)-N-(5-((2-chlorophenyl)(3-hydroxypyrrolidin-1-yl)methyl)thiazol-2-yl)cyclopropanecarboxamide]
cerebral artery CFTR mRNA expression (CFTR mRNA): not affected; also recorded: does not influence
cerebral blood flow / cerebral perfusion (mice with heart failure): restores; also recorded: significantly improves
FITC-labeled sphingosine-1-phosphate uptake after TNF (CFTR): fully restores; also recorded: normalization
